The results in this text go back to BindingDB's records for doi:10.1074/jbc.M705416200 (University Würzburg, 2007).

Peptide text beside a SMILES is read from it.

This experiment is described as follows: Inhibition of human SGLT1 expressed in xenopus laevis oocyte assessed as inhibition of methyl-alpha-D-[14C]glucopyranoside uptake after 1 hrs.
Usually IC50 stands for the concentration needed to halve the response being measured. Take `NC(=O)CC[C@H](N)C(=O)N[C@@H](CO)C(=O)N1CCC[C@H]1C(=O)O` [(S)-1-((S)-2-((S)-2,5-diamino-5-oxopentanamido)-3-hydroxypropanoyl)pyrrolidine-2-carboxylic acid] (H-Gln-Ser-Pro-OH): the IC50 amounted to 0.16 nM.

Take `NC(=O)CC[C@H](N)C(=O)N[C@@H](CS)C(=O)N1CCC[C@H]1C(=O)O` [QCP] (H-Gln-Cys-Pro-OH): the IC50 was determined as 2.1 nM.

In the case of `CC(=O)N1CCC[C@H]1C(=O)N[C@@H](CO)C(=O)N[C@@H](CCC(N)=O)C(=O)O` [QSPac] (Ac-Pro-Ser-Gln-OH), the half-inhibitory concentration (IC50) came to 0.17 nM.
